Measured values taken from ChEMBL document CHEMBL1201862, “PubChem BioAssay data set” (2004).
Active and inactive are the calls of the source.

Tests used:
[1] = biological target: Potassium voltage-gated channel subfamily KQT member 2 (Rattus norvegicus, UniProt O88943); assay: KCNQ2 channel activators, analog series, SAR follow-up, automated patch clamp, KCNQ2-CHO cells (AID 493113); format: functional
BJ = assay: cytotoxicity toward Ras-transformed BJeLR fibroblasts, dose response, cell-based, alamar blue fluorescence, cherrypicked samples (AID 2631); format: functional; settings: Homo sapiens;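 further: confirmatory dose-response assay in RAS-dependent BJ fibroblasts engineered with TERT, LT and ST, with cytotoxicity read by fluorescence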
Fatty acid synthase [2] = biological target: T1, Fatty acid synthase (Homo sapiens, UniProt P49327); assay: FAS thioesterase domain inhibitors, dose response, biochemical, kinetic fluorescence intensity (AID 624326); format: functional;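 further: rate of fluorescence rise from hydrolysis of a fluorogenic O-methyl fluorescein ester substrate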
T1 sequence (P49327 whole entry, the tested form may be a part): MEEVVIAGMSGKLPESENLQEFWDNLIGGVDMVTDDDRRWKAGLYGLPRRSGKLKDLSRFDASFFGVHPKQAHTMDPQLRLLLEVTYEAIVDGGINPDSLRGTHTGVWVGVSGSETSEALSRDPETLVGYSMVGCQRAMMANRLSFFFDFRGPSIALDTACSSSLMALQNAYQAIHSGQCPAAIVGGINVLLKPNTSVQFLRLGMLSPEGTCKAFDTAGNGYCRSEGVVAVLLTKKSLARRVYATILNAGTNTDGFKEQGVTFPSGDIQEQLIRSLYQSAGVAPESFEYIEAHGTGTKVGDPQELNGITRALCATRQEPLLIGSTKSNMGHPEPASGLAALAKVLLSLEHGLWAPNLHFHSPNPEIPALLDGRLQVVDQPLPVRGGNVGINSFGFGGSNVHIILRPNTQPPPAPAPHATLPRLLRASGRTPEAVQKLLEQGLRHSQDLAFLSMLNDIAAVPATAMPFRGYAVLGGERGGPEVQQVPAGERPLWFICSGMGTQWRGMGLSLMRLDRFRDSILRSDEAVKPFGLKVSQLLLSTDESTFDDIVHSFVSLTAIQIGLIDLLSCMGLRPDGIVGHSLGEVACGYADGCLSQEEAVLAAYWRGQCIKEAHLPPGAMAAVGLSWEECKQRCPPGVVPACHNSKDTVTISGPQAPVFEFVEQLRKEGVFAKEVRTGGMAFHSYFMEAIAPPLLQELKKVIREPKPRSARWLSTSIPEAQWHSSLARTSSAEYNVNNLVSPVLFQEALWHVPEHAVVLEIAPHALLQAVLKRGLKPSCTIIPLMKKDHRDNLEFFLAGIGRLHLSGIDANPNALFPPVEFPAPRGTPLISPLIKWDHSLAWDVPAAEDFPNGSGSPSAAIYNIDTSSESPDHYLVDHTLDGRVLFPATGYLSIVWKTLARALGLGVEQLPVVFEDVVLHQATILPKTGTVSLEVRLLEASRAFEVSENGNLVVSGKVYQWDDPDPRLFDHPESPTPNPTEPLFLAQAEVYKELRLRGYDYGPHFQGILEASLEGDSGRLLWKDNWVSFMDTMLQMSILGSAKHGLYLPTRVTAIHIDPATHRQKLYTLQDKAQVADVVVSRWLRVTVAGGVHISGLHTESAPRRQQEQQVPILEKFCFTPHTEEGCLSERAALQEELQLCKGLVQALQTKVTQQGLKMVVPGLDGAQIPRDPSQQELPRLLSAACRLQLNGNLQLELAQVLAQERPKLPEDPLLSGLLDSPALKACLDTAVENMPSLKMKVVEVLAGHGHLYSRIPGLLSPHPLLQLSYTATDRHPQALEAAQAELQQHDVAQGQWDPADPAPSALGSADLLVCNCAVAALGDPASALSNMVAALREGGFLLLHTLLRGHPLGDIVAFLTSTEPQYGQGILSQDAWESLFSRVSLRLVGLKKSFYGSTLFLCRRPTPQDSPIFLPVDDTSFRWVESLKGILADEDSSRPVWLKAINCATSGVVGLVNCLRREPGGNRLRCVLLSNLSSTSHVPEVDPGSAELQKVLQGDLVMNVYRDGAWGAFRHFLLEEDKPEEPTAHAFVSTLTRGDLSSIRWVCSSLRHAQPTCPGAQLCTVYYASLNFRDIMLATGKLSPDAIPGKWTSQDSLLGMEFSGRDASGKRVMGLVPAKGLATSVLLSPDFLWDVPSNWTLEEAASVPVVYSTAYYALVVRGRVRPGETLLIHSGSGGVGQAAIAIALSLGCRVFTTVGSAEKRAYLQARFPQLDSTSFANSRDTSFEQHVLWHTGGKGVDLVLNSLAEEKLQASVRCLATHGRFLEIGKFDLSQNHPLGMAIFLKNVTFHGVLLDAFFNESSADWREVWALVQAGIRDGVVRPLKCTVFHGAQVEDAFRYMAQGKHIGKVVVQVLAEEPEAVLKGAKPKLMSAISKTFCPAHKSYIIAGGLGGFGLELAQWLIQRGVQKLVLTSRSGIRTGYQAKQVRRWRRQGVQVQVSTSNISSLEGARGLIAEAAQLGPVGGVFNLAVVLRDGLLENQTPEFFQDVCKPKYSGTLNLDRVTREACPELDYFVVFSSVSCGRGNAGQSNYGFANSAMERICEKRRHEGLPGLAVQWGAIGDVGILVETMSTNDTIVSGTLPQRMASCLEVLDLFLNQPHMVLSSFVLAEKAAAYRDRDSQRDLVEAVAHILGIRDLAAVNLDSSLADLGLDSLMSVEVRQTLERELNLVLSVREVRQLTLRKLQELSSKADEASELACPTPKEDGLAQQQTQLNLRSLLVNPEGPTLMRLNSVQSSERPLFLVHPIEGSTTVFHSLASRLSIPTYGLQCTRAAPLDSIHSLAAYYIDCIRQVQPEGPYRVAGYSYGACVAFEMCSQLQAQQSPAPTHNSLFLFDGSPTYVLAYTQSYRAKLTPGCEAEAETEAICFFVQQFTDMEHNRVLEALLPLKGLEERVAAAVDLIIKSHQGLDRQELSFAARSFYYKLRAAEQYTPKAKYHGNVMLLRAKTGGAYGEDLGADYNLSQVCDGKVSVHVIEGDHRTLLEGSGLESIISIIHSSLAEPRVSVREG

[3] = Shn3 3'UTR reporter inhibitors, dose response, cell-based, Clone20 osteoblasts, firefly luciferase, cherry-picked (AID 624132); format: functional;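 further: firefly luciferase luminescence from reporter carrying the Shn3 3'UTR in osteoblasts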
[4] = biological target: T2, Replicative DNA helicase DnaB (Mycobacterium tuberculosis, UniProt P9WMR3); assay: DnaB intein splicing inhibitors, dose response, biochemical, cell-free fluorescence (AID 449749); format: functional
T2 sequence (P9WMR3 whole entry): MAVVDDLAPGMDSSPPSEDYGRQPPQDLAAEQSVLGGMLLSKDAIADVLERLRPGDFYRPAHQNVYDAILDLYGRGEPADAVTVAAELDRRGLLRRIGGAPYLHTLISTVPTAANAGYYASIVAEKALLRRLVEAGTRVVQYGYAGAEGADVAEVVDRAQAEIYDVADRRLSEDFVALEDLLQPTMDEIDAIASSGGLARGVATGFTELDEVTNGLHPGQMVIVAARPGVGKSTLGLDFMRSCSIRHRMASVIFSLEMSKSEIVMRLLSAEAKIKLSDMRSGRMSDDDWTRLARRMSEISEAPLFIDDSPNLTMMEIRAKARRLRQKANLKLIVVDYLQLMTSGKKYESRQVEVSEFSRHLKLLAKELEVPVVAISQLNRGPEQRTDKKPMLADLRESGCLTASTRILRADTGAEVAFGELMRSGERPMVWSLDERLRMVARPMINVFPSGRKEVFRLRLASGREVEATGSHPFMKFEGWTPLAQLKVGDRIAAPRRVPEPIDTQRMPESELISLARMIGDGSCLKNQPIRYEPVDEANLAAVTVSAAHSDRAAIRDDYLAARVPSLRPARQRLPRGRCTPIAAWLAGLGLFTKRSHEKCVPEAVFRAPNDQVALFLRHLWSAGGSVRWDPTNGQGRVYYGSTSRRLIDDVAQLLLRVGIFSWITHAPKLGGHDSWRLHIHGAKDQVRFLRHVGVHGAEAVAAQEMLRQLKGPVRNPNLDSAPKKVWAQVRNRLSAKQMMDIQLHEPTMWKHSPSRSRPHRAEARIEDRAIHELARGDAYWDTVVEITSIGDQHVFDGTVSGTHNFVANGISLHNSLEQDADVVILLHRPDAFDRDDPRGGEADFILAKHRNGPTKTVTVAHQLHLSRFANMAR

[5] = growth suppression of beta-catenin-knockout colon cells, dose response, cell-based, HCT116, human colon tumor (AID 1045); format: functional;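 further: HCT116 colon tumor cells with beta catenin knocked out; cells exposed to compound for 60 hours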
Mu-type opioid receptor = Mu-type opioid receptor (Homo sapiens, UniProt P35372); assay: HTS Image-Based Screen for Agonists of the MOR Receptor. [Related pubchem assays (depositor defined):AID1777, AID1785, AID1786, AID2133]; format: functional;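 further: imaging of beta-arrestin GFP recruitment into spots after receptor activation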
Sequence of Mu-type opioid receptor (P35372 whole entry, the tested form may be a part): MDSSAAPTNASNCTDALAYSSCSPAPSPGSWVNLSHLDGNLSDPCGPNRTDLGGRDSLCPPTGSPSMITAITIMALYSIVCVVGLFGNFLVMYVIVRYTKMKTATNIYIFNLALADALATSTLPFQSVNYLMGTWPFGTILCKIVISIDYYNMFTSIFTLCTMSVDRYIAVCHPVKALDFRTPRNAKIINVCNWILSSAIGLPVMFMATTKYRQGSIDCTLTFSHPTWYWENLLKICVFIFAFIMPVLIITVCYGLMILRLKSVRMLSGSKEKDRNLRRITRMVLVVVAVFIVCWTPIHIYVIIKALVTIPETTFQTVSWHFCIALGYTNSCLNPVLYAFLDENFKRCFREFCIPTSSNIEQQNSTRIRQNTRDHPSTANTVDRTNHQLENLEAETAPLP

CHO = assay: cytotoxicity in TLR9-MyD88 CHO cells, dose response, cytotoxicity control for TLR9-MyD88 binding inhibitor project, cell-based, luminescence (AID 588339); format: functional, hamster; settings: Cricetulus griseus;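 further: CHO cells stably coexpressing TLR9 and MyD88 fusions from primary screen; compound exposure lasted 48 hours before viability readout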
[6] = Vero E6 cell cytotoxicity, dose response, cytotoxicity control for non-replicating M. tuberculosis project, secondary assay (AID 492998); format: functional, VeroE6; settings: Vero C1008
Fatty acid synthase [7] = biological target: T1, Fatty acid synthase; assay: FAS thioesterase domain inhibitors, dose response, biochemical, endpoint fluorescence intensity, uHTS hits (AID 624327); format: functional;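 further: fluorescence from hydrolysis of an O-methyl fluorescein acyl ester substrate by the enzyme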
cells = format: functional
[8] = biological target: T3, Delta-type opioid receptor (Homo sapiens, UniProt P41143); assay: HTS Image-Based Screen for Agonists of the DOR Receptor. [Related pubchem assays (depositor defined):AID1777, AID1786, AID2133]; format: functional
T3 sequence (P41143 whole entry): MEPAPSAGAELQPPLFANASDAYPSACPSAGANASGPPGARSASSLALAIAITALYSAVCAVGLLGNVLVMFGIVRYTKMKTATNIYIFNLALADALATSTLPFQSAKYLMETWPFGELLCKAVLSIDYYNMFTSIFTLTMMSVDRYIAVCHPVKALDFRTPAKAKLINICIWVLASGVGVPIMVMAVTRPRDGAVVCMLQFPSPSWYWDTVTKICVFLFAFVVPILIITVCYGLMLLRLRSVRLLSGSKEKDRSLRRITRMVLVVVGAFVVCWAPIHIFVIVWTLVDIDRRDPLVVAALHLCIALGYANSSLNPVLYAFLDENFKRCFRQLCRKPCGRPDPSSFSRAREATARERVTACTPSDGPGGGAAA

[9] = HepG2 cell cytotoxicity, dose response, cytotoxicity control for non-replicating M. tuberculosis project (AID 489018); format: functional; settings: Mycobacterium tuberculosis
Protein RecA = biological target: T4, Protein RecA (Mycobacterium tuberculosis, UniProt P9WHJ3); assay: Fluorescence Cell-Free Homogeneous Dose Retest to Identify Inhibitors of RecA-Intein Splicing Activity. [Related pubchem assays (depositor defined):AID2097, AID2223, AID489010, AID492950]; format: functional
T4 sequence (P9WHJ3 whole entry): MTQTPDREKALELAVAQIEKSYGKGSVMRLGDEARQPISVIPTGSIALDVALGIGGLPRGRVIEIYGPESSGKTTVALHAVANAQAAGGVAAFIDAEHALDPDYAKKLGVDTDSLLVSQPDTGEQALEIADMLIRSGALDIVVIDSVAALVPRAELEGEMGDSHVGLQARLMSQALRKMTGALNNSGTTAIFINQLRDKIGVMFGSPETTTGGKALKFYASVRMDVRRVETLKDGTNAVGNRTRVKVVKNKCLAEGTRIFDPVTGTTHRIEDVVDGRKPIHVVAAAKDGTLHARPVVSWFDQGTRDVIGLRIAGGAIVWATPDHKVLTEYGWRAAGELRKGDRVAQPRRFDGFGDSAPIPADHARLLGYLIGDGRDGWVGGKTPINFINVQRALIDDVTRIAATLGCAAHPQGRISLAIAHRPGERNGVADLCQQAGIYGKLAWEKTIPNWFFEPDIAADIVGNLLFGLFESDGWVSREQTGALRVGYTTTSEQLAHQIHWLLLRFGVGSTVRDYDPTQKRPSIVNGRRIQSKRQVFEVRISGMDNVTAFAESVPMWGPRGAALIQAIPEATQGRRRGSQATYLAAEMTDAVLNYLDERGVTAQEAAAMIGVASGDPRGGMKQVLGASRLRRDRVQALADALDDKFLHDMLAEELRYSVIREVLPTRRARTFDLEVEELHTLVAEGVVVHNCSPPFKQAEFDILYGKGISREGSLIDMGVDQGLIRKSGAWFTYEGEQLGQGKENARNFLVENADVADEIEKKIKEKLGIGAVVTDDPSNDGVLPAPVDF

[10] = HepG2 cell cytotoxicity, dose response, cytotoxicity control for Shn3 inhibitor project, CellTiter-Glo, cherry-picked (AID 624134); format: functional, cell-based
[11] = biological target: T3, Delta-type opioid receptor; assay: HTS Image-Based Screen for Antagonists of the DOR Receptor. [Related pubchem assays (depositor defined):AID1777, AID1785, AID1786, AID2133]; format: functional
[12] = biological target: Bifunctional protein GlmU (Mycobacterium tuberculosis, UniProt P9WMN3); assay: Inhibitors of Mycobacterial Glucosamine-1-phosphate acetyl transferase (GlmU). Secondary screen.; design: species or system Mycobacterium tuberculosis H37Rv
[13] = growth suppression of PTEN-null colon cells, dose response, cell-based, HCT116 PTEN knockout (AID 1047); format: functional;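 further: HCT116 colon tumor cells with PTEN knocked out; cells exposed to compound for 60 hours before readout; potency for loss of cell viability measured by luminescence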
[14] = biological target: T5, Kappa-type opioid receptor (Homo sapiens, UniProt P41145); format: functional
T5 sequence (P41145 whole entry): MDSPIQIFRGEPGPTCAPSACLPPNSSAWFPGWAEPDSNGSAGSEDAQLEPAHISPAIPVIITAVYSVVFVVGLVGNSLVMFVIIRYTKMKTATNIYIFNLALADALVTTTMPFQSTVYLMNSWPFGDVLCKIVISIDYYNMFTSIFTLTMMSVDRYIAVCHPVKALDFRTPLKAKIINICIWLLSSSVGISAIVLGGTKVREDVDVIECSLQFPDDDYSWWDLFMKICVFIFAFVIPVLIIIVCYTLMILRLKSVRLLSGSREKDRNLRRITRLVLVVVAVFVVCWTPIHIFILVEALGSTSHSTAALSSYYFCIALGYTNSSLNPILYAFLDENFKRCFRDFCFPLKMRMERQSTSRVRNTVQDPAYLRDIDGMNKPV

[15] = THP-1 cell cytotoxicity, dose response, cytotoxicity control for non-replicating M. tuberculosis project (AID 489025); format: functional
Beta-galactosidase = Beta-galactosidase (Escherichia coli, UniProt Q8VNN2); format: functional
[16] = control 3'UTR Renilla luciferase suppression, dose response, counter-screen for Shn3 inhibitor project, cell-based, Clone20-Shn3RL, cherry-picked (AID 624133); format: functional
Beta Lactamase = Beta Lactamase (Pseudomonas aeruginosa, UniProt Q932Y6); assay: beta-lactamase reporter inhibitor potency, dose response, artefact control for TLR9-MyD88 binding inhibitor project, BLA reporter cells, FRET fluorescence (AID 588341); format: cell-based;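 further: cell based assay in CHO-K1 cells stably expressing beta-lactamase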
Sequence of Beta Lactamase (Q932Y6 whole entry): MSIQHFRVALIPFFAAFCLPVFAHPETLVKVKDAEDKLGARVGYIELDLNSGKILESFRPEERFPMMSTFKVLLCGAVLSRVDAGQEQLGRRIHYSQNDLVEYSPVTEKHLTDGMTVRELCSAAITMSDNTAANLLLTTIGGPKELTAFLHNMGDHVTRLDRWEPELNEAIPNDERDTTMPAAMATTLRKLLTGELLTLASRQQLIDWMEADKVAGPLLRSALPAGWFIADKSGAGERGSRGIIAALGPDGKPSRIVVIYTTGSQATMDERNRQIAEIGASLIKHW

[17] = biological target: T5, Kappa-type opioid receptor; format: functional; remark: listed apart in the source
[18] = Luminescence Cell-Based Dose Retest to Confirm Inhibitors of Cancer Stem Cells. [Related pubchem assays (depositor defined):AID2717, AID2721]; format: functional; settings: Homo sapiens
[19] = cytotoxicity in HMLE control line with eGFP shRNA, dose response, counter-screen for HMLE_sh_ECad selective toxicity project, cell-based, HMLE_sh_eGFP, luminescence (AID 463074); format: functional, Homo sapiens;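 further: HMLE human mammary epithelial cells expressing control shRNA against eGFP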

Sequence of Potassium voltage-gated channel subfamily KQT member 2 (O88943 whole entry): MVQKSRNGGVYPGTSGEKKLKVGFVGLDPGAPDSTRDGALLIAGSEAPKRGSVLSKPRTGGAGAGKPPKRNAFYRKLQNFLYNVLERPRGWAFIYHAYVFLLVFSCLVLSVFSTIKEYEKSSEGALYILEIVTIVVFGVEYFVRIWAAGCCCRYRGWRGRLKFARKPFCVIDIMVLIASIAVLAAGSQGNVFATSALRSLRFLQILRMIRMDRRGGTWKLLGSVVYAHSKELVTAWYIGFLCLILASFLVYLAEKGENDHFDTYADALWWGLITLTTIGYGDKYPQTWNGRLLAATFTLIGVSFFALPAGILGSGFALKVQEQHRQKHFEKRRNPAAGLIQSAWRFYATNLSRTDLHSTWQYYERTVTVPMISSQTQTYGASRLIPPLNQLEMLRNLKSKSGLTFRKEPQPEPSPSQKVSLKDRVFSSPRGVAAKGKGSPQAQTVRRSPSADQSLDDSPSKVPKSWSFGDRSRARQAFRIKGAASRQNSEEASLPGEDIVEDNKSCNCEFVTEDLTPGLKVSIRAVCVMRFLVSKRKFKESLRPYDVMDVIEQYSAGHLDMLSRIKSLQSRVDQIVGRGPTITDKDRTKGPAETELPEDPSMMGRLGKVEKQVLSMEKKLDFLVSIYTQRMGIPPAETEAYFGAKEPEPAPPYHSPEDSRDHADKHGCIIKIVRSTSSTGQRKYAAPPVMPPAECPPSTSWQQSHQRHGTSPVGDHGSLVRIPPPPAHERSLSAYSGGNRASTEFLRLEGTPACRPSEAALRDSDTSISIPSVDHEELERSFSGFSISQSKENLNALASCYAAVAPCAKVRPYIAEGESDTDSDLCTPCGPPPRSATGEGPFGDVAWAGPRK

CCc1ccc(NC(=O)C2CC3CCC2C3)cc1 (stereo unspecified)
EC50 [1]: 0.92 µM (active)

CCCC(=O)OCCNc1cc(Sc2nccn2C)c2nonc2c1[N+](=O)[O-]
EC50 (BJ): 2.82 µM (active)
IC50 (Fatty acid synthase [2]): 2.57 µM (active)
AC50 [3]: 7.22 µM (active)
AC50 [4]: 1.14 µM (active)
EC50 [5]: 4.63 µM (active)
EC50 (Mu-type opioid receptor): > 32 µM (inactive)
IC50 (CHO): 3.21 µM (active)
CC50 [6]: 16.6 µM (active)
IC50 (Fatty acid synthase [7]): 5.11 µM (active)
IC50 (cells): 6.13 µM (active)
EC50 [8]: > 32 µM (inactive)
CC50 [9]: 13.3 µM (active)
EC50 (Protein RecA): 1.27 µM (active)
AC50 [10]: 15.7 µM (active)
IC50 [11]: > 32 µM (inactive)
IC50 [12]: 136 µM (active)
EC50 [13]: 6.43 µM (active)
IC50 [14]: 5.47 µM (active)
CC50 [15]: 19.2 µM (active)
EC50 (Beta-galactosidase): > 31.5 µM (inactive)
AC50 [16]: 12.2 µM (active)
IC50 (Beta Lactamase): 8.31 µM (active)
IC50 [17]: 30.5 µM

O=C(NCCCn1ccnc1)c1cccc(S(=O)(=O)N2CCCCCC2)c1
AC50 [18]: 18.9 µM (active)
AC50 [19]: 27.2 µM (active)
